Values quoted from earlier work in patent US7709654B2, “Process for producing oxazole, imidazole, pyrrazole boryl compounds” (Board of Trustees of Michigan State University, priority 2006, dated 2010).

Target: T1, cyclooxygenase-2 (COX-2) (Homo sapiens, UniProt P35354)
T1 sequence (P35354 18-604): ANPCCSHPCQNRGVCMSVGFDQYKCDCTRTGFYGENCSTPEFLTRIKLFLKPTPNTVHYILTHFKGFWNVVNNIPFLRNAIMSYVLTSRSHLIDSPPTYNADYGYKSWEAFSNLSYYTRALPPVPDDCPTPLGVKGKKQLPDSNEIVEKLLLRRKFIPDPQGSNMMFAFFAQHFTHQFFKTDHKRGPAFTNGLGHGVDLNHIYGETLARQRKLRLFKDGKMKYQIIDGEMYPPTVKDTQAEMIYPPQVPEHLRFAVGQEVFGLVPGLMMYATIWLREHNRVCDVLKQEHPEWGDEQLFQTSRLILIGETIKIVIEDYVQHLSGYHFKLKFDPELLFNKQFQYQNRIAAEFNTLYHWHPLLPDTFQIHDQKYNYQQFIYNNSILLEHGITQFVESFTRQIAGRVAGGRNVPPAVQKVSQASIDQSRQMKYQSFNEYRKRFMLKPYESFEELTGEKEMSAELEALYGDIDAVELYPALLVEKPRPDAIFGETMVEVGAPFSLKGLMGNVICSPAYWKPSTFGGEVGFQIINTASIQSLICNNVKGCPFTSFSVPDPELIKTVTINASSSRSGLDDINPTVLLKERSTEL
Settings: COX-2 versus COX-1

## Cc1nc(C2CCCCC2)c(-c2ccc(S(N)(=O)=O)c(F)c2)o1 [JTE-522, 4-(4-cyclohexyl-2-methyloxazol-5-yl)-2-fluorobenzenesulfonamide]
  COX-2 inhibition (in words): potent, highly selective, and orally active COX-2 inhibitor
